The values below come from patent US7514438B2, “Melanin concentrating hormone receptor antagonist” (Amgen, Inc., priority 2003, dated 2009).

This experiment has as its target T1, rat MCH 1 receptor (rMCH1R) (Rattus norvegicus, UniProt P97639).
T1 construct: expressed in transfected cells; host or cells: HEK 293 (membranes)
Description: 125I-MCH ligand binding assay, rMCH. As to conditions: HEK 293 membranes, 0.2 nM 125I native-MCH, read-out: IC50 in the rMCH binding assay. As for the experimental part: Human embryonic kidney cells (293 total) expressing either human, rat, or mouse MCH receptor were harvested from 150 mm culture dishes using PBS. Spinning at 1500 rpm for 2 minutes initially pelleted cells. The resulting pellet was then homogenized in 15 mL ice cold sucrose buffer (25 mM HEPES, 0.3 M sucrose, pH 7.4) with a motorized, glass fitted, Teflon® homogenizer. The homogenate was centrifuged at 48,000×g at 4° C. for 10 minutes, resuspended in 15 mL assay buffer (25 mM HEPES, 10 mM mgCl2, 0.2% BSA, 0.1 mg/mL STI, 0.1 mg/mL Pefabloc®, 1 μM Phosphoramidon, pH 7.4) with a Tissue-Tearor® (Biospec Products) and centrifuged again at 48,000×g for 10 minutes. The pellet was homogenized for a third time in 15 mL assay buffer using the Tissue-Tearor® and again centrifuged at 48,000×g for 10 minutes. The resulting pellet was resuspended in assay buffer at a wet weight concentration of 10-20 mg/mL.
Binding assays were determined as described below using mouse, rat or human MCH 1 receptors (mMCH1R, rMCH1R, and hMCH1R, respectively) expressed in HEK 293; IC50 values were calculated.
Binding assays were performed in 96-well U-bottom plates. Membranes (100 μg tissue) were incubated at 30° C. for 90 minutes in assay buffer with various peptides in the presence of 0.2 nM ^125I native-MCH (Perkin-Elmer Life Sciences, Boston, Mass.) in 100 μL total volume. Non-specific binding was assessed in the presence of 1 μM cold native-MCH. The reaction was terminated by rapid filtration through Unfilter-96 GF/C glass fiber filter plates (FilterMate® 196 Harvester, Packard Instrument Co., Meriden, Conn.) pre-soaked in PBS/0.5% BSA, followed by three washes with 300 μL ice-cold water. Bound radioactivity was determined using a TopCount® microplate scintillation and luminescence counter (Packard Instrument Co., Meriden, Conn.). Nonlinear regression analyses of drug concentration curves were performed using GraphPad Prism® (GraphPad Software, Inc., San Diego, Calif.).

SMILES strings stand for the structures. pIC50: −log10 of the molar value. Like-named read-outs stand apart in the source and are kept apart here.

T1 sequence (P97639 whole entry): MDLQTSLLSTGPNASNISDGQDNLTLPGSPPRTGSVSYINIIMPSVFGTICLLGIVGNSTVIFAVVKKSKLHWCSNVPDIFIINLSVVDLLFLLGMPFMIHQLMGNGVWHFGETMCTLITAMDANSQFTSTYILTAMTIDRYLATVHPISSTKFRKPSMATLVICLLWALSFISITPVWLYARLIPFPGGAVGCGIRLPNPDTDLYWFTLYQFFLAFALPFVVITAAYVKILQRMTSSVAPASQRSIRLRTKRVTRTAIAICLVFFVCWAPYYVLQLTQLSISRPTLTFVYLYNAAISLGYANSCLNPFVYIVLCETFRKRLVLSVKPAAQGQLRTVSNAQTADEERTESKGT

The term pIC50 denotes the IC50 on a negative log10 scale, so that one unit is a factor of ten. For `COc1ccc([C@@H](c2nnnn2-c2c(C)cccc2C)N2CCN(C/C=C/c3ccccc3)CC2)cc1OC` (racemic) [Compound 128, 1-{(3,4-dimethoxyphenyl)-[1-(2,6-dimethylphenyl)-1H-tetrazol-5-yl]methyl}-4-(3-phenylallyl)piperazine], under “100 μM or less list”, the pIC50 was at least 4.00.
On the same count and under the same terms, under `Cc1cccc(C)c1-n1nnnc1[C@H](c1ccccn1)N1CCN(C/C=C/c2ccccc2)CC1` (racemic) [Compound 75, 1-{[1-(2,6-dimethylphenyl)-1H-tetrazol-5-yl]pyridin-2-ylmethyl}-4-(3-phenylallyl)piperazine] stands at least 4.00; under `Cc1cccc(C)c1-n1nnnc1[C@H](c1cccc(C(F)(F)F)c1)N1CCN(Cc2ccc3c(c2)OCO3)CC1` (racemic) [Compound 156, 1-benzo[1,3]dioxol-5-ylmethyl-4-[[1-(2,6-dimethylphenyl)-1H-tetrazol-5-yl]-(3-trifluoromethylphenyl)methyl]piperazine], at least 4.00; under `Cc1cccc(C)c1-n1nnnc1C(c1cccc(C(F)(F)F)c1)N1CCN(CCCc2ccccc2)CC1` (racemic) [Compound 154, 1-[[1-(2,6-dimethylphenyl)-1H-tetrazol-5-yl]-(3-trifluoromethylphenyl)methyl]-4-(3-phenylpropyl)piperazine], at least 4.00.
Same read-out and setting: under `CC(C)(C)OC(=O)Cn1nnnc1[C@H](c1ccccc1)N1CCN(C/C=C/c2ccccc2)CC1` (racemic) [Compound 24, (5-{phenyl-[4-(3-phenylallyl)piperazin-1-yl]methyl}tetrazol-1-yl)acetic acid tert-butyl ester] stands at least 4.00.
On to `Cc1ccc([C@@H](c2nnnn2-c2c(C)cccc2C)N2CCN(C/C=C/c3ccccc3)CC2)cc1C` (racemic) [Compound 123, 1-{(3,4-dimethylphenyl)-[1-(2,6-dimethylphenyl)-1H-tetrazol-5-yl]methyl}-4-(3-phenylallyl)piperazine], for which the pIC50 (100 μM or less list) was at least 4.00.
As for `C(=C\c1ccccc1)/CN1CCN([C@@H](c2ccccc2)c2nnnn2CCC(c2ccccc2)c2ccccc2)CC1` (racemic) [Compound 27, 1-{[1-(3,3-diphenylpropyl)-1H-tetrazol-5-yl]phenylmethyl}-4-(3-phenylallyl)piperazine], the pIC50 (100 μM or less list) was at least 4.00.
On the same count and under the same terms, under `Cc1cccc(C)c1-n1nnnc1[C@H](c1ccc(Cl)cc1)N1CCN(C/C=C/c2ccccc2)CC1` [Compound 118, 1-{(4-chiorophenyl)-[1-(2,6-dimethylphenyl)-1H-tetrazol-5-yl]methyl}-4-(3-phenylallyl)piperazine] stands at least 4.00; under `Cc1cccc(C)c1-n1nnnc1[C@H](c1ccc(F)c(F)c1)N1CCN(C/C=C/c2ccccc2)CC1` (racemic) [Compound 124, 1-{(3,4-difluoraphenyl)-[1-(2,6-dimethylphenyl)-1H-tetrazol-5-yl]methyl}-4-(3-phenylallyl)piperazine], at least 4.00.
In the case of `Cc1cccc(C)c1-n1nnnc1C1(N2CCN(C/C=C/c3ccccc3)CC2)CCN(C)CC1` [Compound 99, 1-{4-[1-(2,6-dimethylphenyl)-1H-tetrazol-5-yl]-1-methylpiperidin-4-yl}-4-(3-phenylallyl)piperazine], the pIC50 (100 μM or less list) is at least 4.00.
For `Cc1cccc(C)c1-n1nnnc1[C@H](c1ccc(CC(C)C)cc1)N1CCN(C/C=C/c2ccccc2)CC1` (racemic) [Compound 130, 1-[[1-(2,6-dimethylphenyl)-1H-tetrazol-5-yl]-(4-isobutylphenyl)methyl]-4-(3-phenylallyl)piperazine], the pIC50 (100 μM or less list) is at least 4.00.
Regarding `Cc1cccc(C)c1-n1nnnc1[C@H](c1ccc(C(C)C)cc1)N1CCN(C/C=C/c2ccccc2)CC1` (racemic) [Compound 125, 1-[[1-(2,6-dimethylphenyl)-1H-tetrazol-5-yl]-(4-isopropylphenyl)methyl}-4-(3-phenylallyl)piperazine], the pIC50 (100 μM or less list) was at least 4.00.
On the same count and under the same terms, under `CSc1ccc([C@@H](c2nnnn2-c2c(C)cccc2C)N2CCN(C/C=C/c3ccccc3)CC2)cc1` (racemic) [Compound 126, 1-[[1-(2,6-dimethylphenyl)-1H-tetrazol-5-yl]-(4-methylsulfanylphenyl)methyl]-4-(3-phenylallyl)piperazine] stands at least 4.00; under `CCc1ccc([C@@H](c2nnnn2-c2c(C)cccc2C)N2CCN(C/C=C/c3ccccc3)CC2)cc1` (racemic) [Compound 127, 1-[[1-(2,6-dimethylphenyl)-1H-tetrazol-5-yl]-(4-ethylphenyl)methyl]-4-(3-phenylallyl)piperazine], at least 4.00.
With `Cc1cccc(C)c1-n1nnnc1[C@H](c1cccc(Br)c1)N1CCN(C/C=C/c2ccccc2)CC1` (racemic) [Compound 139, 1-{(3-bromophenyl)-[1-(2,6-dimethylphenyl)-1H-tetrazol-5-yl]methyl}-4-(3-phenylallyl)piperazine], the pIC50 is at least 7.00 (100 nM or less list) and at least 4.00 (100 μM or less list).
For `CCOc1ccc([C@@H](c2nnnn2-c2c(C)cccc2C)N2CCN(C/C=C/c3ccccc3)CC2)cc1` (racemic) [Compound 136, 1-[[1-(2,6-dimethylphenyl)-1H-tetrazol-5-yl]-(4-ethoxyphenyl)methyl]-4-(3-phenylallyl)piperazine], in that order: at least 7.00 and at least 4.00.
`COc1cc(/C=C/CN2CCN([C@@H](c3cccc(C(F)(F)F)c3)c3nnnn3-c3c(C)cccc3C)CC2)ccc1O` (racemic) [Compound 163, 4-(3-{4-[[1-(2,6-dimethylphenyl)-1H-tetrazol-5-yl]-(3-trifluoromethylphenyl)methyl]piperazin-1-yl}propenyl)-2-methoxyphenol]: the pIC50 by setting is: (100 nM or less list) at least 7.00; (100 μM or less list) at least 4.00.
Consider `CCN([C@@H]1CCN(Cc2ccccc2)C1)[C@@H](c1cccc(C(F)(F)F)c1)c1nnnn1-c1c(C)cccc1C` (racemic) [Compound 162, (1-benzylpyrrolidin-3-yl)-[[1-(2,6-dimethylphenyl)-1H-tetrazol-5-yl]-(3-trifluoromethylphenyl)methyl]ethylamine], for which the pIC50 (100 μM or less list) is at least 4.00.
As to `C(=C\c1ccccc1)/CN1CCN([C@@H](c2ccccc2)c2nnnn2C2CCN(Cc3ccccc3)CC2)CC1` (racemic) [Compound 28, 1-{[1-(1-benzylpiperidin-4-yl)-1H-tetrazol-5-yl]phenylmethyl}-4-(3-phenylallyl)piperazine], the pIC50 (100 μM or less list) is at least 4.00.
With `COc1ccc([C@@H](c2nnnn2-c2c(C)cccc2C)N2CCN(C/C=C/c3ccccc3)CC2)cc1` (racemic) [Compound 122, 1-[[1-(2,6-dimethylphenyl)-1H-tetrazol-5-yl]-(4-methoxyphenyl)methyl]-4-(3-phenylallyl)piperazine], the pIC50 (100 μM or less list) is at least 4.00.
As to `COc1cc([C@@H](c2nnnn2-c2c(C)cccc2C)N2CCN(C/C=C/c3ccccc3)CC2)ccc1OCc1ccccc1` (racemic) [Compound 129, 1-{(4-benzyloxy-3-methoxyphenyl)-[1-(2,6-dimethylphenyl)-1H-tetrazol-5-yl]methyl}-4-(3-phenylallyl)piperazine], the pIC50 is at least 7.00 (100 nM or less list) and at least 4.00 (100 μM or less list).
In the same order, the values of `Cc1cccc(C)c1-n1nnnc1[C@H](c1cccc([N+](=O)[O-])c1)N1CCN(C/C=C/c2ccccc2)CC1` (racemic) [Compound 138, 1-[[1-(2,6-dimethylphenyl)-1H-tetrazol-5-yl]-(3-nitrophenyl)methyl]-4-(3-phenylallyl)piperazine] are at least 7.00 and at least 4.00.
With `CC(=O)Nc1ccc([C@@H](c2nnnn2-c2c(C)cccc2C)N2CCN(C/C=C/c3ccccc3)CC2)cc1` (racemic) [Compound 131, n-(4-{[1-(2,6-dimethylphenyl)-1H-tetrazol-5-yl]-[4-(3-phenylallyl)piperazin-1-yl]methyl}phenyl)acetamide], the pIC50 (100 μM or less list) is at least 4.00.
Take `Cc1cccc(C)c1-n1nnnc1[C@H](c1cc(Cl)cc(Cl)c1)N1CCN(C/C=C/c2ccccc2)CC1` (racemic) [Compound 137, 1-{(3,5-dichlorophenyl)-[1-(2,6-dimethylphenyl)-1H-tetrazol-5-yl]methyl}-4-(3-phenylallyl)piperazine]: the pIC50 reads like this: (100 nM or less list) at least 7.00; (100 μM or less list) at least 4.00.
On to `Cc1cccc(C)c1-n1nnnc1[C@H](c1cccc(Cl)c1)N1CCN(C/C=C/c2ccccc2)CC1` (racemic) [Compound 140, 1-{(3-chlorophenyl)-[1-(2,6-dimethylphenyl)-1H-tetrazol-5-yl]methyl}-4-(3-phenylallyl)piperazine], for which the pIC50 was at least 7.00 (100 nM or less list) and at least 4.00 (100 μM or less list).
